Columns and labels:
Format in all cases: physicochemical
[1] = photochromic response of test squares on an optical bench (sensitivity, saturation optical density, bleach rate); settings: for ΔOD @ Saturation (Band A) / ΔOD @ Saturation (Band B): UV exposure 15 minutes; for ΔOD @ Saturation (Band A) / Sensitivity ΔOD/MIN (Band A) / ΔOD @ Saturation (Band B) / Sensitivity ΔOD/MIN (Band B): 72° F. (22.2° C.), polymer test square; for Sensitivity ΔOD/MIN (Band A) / Sensitivity ΔOD/MIN (Band B): first five (5) seconds of UV exposure, expressed per minute; for Bleach Rate T 1/2: measured at band B, room temperature (72° F., 22.2° C.) after removal of activating light
Method: (§1) Testing was done with the photochromic compounds described in Examples 1 through 20 and Comparative Examples 1 through 3 in the following manner. A quantity of photochromic compound calculated to yield a 1.5×10^-3 molal solution was added to a flask containing 50 grams of a monomer blend of 4 parts ethoxylated bisphenol A dimethacrylate (BPA 2EO DMA), 1 part poly(ethylene glycol) 600 dimethacrylate, and 0.033 weight percent 2,2'-azobis(2-methyl propionitrile) (AIBN). The photochromic compound was dissolved into the monomer blend by stirring and gentle heating, if necessary. After a clear solution was obtained, it was poured into a flat sheet mold having the interior dimensions of 2.2 mm×6 inches (15.24 cm)×6 inches (15.24 cm). The mold was sealed and placed in a horizontal air flow, programmable oven programmed to increase the temperature from 40° C. to 95° C. over a 5 hour interval, hold the temperature at 95° C. for 3 hours, lower it to 60° C. over a 2 hour interval and then hold it at 60° C. for 16 hours. After the mold was opened, the polymer sheet was cut using a diamond blade saw into 2 inch (5.1 centimeters) test squares.
(§2) The photochromic test squares of Part A were tested for photochromic response rates on an optical bench. Prior to testing on the optical bench, the photochromic test squares were exposed to 365 nanometer ultraviolet light for about 15 minutes to activate the photochromic compounds and then placed into a 76° C. oven for about 15 minutes to bleach the photochromic compounds. The test squares were then cooled to room temperature, exposed to fluorescent room lighting for at least 2 hours and then kept covered for at least 2 hours prior to testing on an optical bench maintained at 72° F. (22.2° C.). The bench was fitted with a 250 watt Xenon arc lamp, a remote controlled shutter, a copper sulfate bath acting as a heat sink for the arc lamp, a Schott WG-320 nm cut-off filter which removes short wavelength radiation; neutral density filter(s) and a sample holder in which the square to be tested was inserted. The power output of the optical bench, i.e., the dosage of light that the sample lens would be exposed to, was calibrated with a photochromic test square used as a reference standard. […] The UV-A detector was placed into the sample holder and the light output was measured. Adjustments to the power output were made by increasing or decreasing the lamp wattage or by adding or removing neutral density filters in the light path.
A monitoring, collimated beam of light from a tungsten lamp was passed through the square at a small angle (approximately 30°) normal to the square. After passing through the square, the light from the tungsten lamp was directed to a detector through Spectral Energy Corp. GM-200 monochromator set at the previously determined visible lambda max of the photochromic compound being measured. The output signals from the detector were processed by a radiometer.
(§3) Change in optical density (ΔOD) was determined by inserting a test square in the bleached state into the sample holder, adjusting the transmittance scale to 100%, opening the shutter from the Xenon lamp to provide ultraviolet radiation to change the test square from the bleached state to an activated (i.e., darkened) state, measuring the transmittance in the activated state, and calculating the change in optical density according to the formula: ΔOD=log(100/% Ta), where % Ta is the percent transmittance in the activated state and the logarithm is to the base 10.
The ΔOD/Min, which represents the sensitivity of the photochromic compound's response to UV light, was measured over the first five (5) seconds of UV exposure, then expressed on a per minute basis. The saturation optical density (ΔOD@ Saturation) was taken under identical conditions as the ΔOD/Min, except UV exposure was continued for 15 minutes. […]

[2] = lambda max (Vis) of activated photochromic test squares in a Varian Cary 3 uv-visible spectrophotometer; settings: activated form in test square
Method: as §1
The lambda max (Vis) is the wavelength in the visible spectrum at which the maximum absorption of the activated (colored) form of the photochromic compound in a test square occurs. The lambda max (Vis) wavelengths reported in Table 1 were determined by testing the photochromic test square polymerizates of Part A in a Varian Cary 3 uv-visible spectrophotometer. The bleach rate (T 1/2) is the time interval in seconds for the absorbance of the activated form of the photochromic compound in the test squares to read one half the highest absorbance at room temperature (72° F., 22.2° C.) after removal of the source of activating light.
For each lambda max visible, the corresponding optical density (Δ OD/Min and Δ OD at saturation) for the desired compounds of the Examples and Comparative Examples are tabulated in Table 1 for the two bands (A and B) of peak absorption for each compound. Table 1 also includes the bleach rate (T 1/2) for each of the compounds as measured at band B. The ratings of the Relative Δ OD at Saturation Test for the bands A and B of each of the Examples and Comparative Examples are calculated as follows: Δ OD at saturation (Band A)/Δ OD at saturation (Band B)×100.

[3] = Relative ΔOD at Saturation Test; settings: ΔOD at saturation (Band A)/ΔOD at saturation (Band B)×100
Description: In accordance with the present invention, it has now been discovered that certain novel indeno[2,1-f]naphtho[1,2-b]pyrans having two absorption bands in the activated (colored) state, an acceptable fade rate, high activated intensity, a high coloration rate and a rating of 80 or higher in the Relative ΔOD at Saturation Test may be prepared. The Relative ΔOD at Saturation Test is described in Example 21. The ratings of the test are defined herein as the result obtained when the optical density of band "A" is divided by the optical density of band "B" and multiplied by 100. It is believed that compounds having a rating of 80 or higher are most valuable for formulating neutral grays, greens and browns for commercial photochromic ophthalmic eyeware.
as §1, §2
as §3, with “10. […]” for “10.”

| ΔOD @ Saturation (Band A) [1] | Sensitivity ΔOD/MIN (Band A) [1] | ΔOD @ Saturation (Band B) [1] | Sensitivity ΔOD/MIN (Band B) [1] | Bleach Rate T 1/2 [1] [min] | λ MAX Vis (Band A) [2] [nm] | λ MAX Vis (Band B) [2] [nm] | Relative ΔOD at Saturation (rating) [3] | Structure (SMILES) |
| --- | --- | --- | --- | --- | --- | --- | --- | --- |
| 0.25 | 0.21 ΔOD/MIN | 0.24 | 0.18 ΔOD/MIN | 1.4 | 480 | 603 | 104 | CCC1(O)c2ccccc2-c2c1c1c(c3cc(OC)c(OC)cc23)OC(c2ccc(OC)cc2)(c2ccc(N3CCOCC3)cc2)C=C1 (centres unmarked) [Example 17, 6,7-dimethoxy-3-(4-methoxyphenyl)-3-(4-morpholinophenyl)-13-hydroxy-13-ethyl-3H,13H-indeno[2,1-f]naphtho[1,2-b]pyran] |
| 0.27 | 0.21 ΔOD/MIN | 0.27 | 0.18 ΔOD/MIN | 1.43 | 483 | 604 | 100 | CCC1(OC)c2ccccc2-c2c1c1c(c3cc(OC)c(OC)cc23)OC(c2ccc(OC)cc2)(c2ccc(N3CCOCC3)cc2)C=C1 (centres unmarked) [Example 18, 3-(4-methoxyphenyl)-3-(4-morpholinophenyl)-6,7-dimethoxy-13-ethyl-13-methoxy-3H,13H-indeno[2,1-f]naphtho[1,2-b]pyran] |
| 0.34 | 0.18 ΔOD/MIN | 0.35 | 0.22 ΔOD/MIN | 1.63 | 481 | 603 | 97 | COc1ccc(C2(c3ccc(N4CCOCC4)cc3)C=Cc3c4c(c5cc(OC)c(OC)cc5c3O2)-c2ccccc2C4(C)O)cc1 (centres unmarked) [Example 19, 3-(4-methoxyphenyl)-3-(4-morpholinophenyl)-6,7-dimethoxy-13-hydroxy-13-methyl-3H,13H-indeno[2,1-f]naphtho[1,2-b]pyran] |
| 0.34 | 0.16 ΔOD/MIN | 0.37 | 0.17 ΔOD/MIN | 1.75 | 483 | 604 | 92 | COc1ccc(C2(c3ccc(N4CCOCC4)cc3)C=Cc3c4c(c5cc(OC)c(OC)cc5c3O2)-c2ccccc2C4(C)OC)cc1 (centres unmarked) [Example 20, 3-(4-methoxyphenyl)-3-(4-morpholinophenyl)-6,7-dimethoxy-13-methoxy-13-methyl-3H,13H-indeno[2,1-f]naphtho[1,2-b]pyran] |

Reference: patent US6296785A, “Indeno-fused photochromic naphthopyrans” (PPG Industries Ohio, Inc., priority 2000, dated 2001)
